Measurements from ChEMBL document CHEMBL1142197, “The relationship between quinolone exposures and resistance amplification is characterized by an inverted U: a new paradigm for optimizing pharmacodynamics to counterselect resistance” (2007).
Converted amounts (≈) assume the structure as drawn.

What was measured:
Assay type in all cases: functional
[1] = system: Klebsiella pneumoniae; test: Antibacterial activity against Klebsiella pneumoniae ATCC 13883 by broth macrodilution method
[2] = system: Staphylococcus aureus; test: Antibacterial activity against ciprofloxacin-resistant methicillin-resistant Staphylococcus aureus by broth macrodilution method
[3] = system: Staphylococcus aureus; test: Antibacterial activity against ciprofloxacin-susceptible methicillin-resistant Staphylococcus aureus by broth macrodilution method
[4] = system: Klebsiella pneumoniae; test: Antibacterial activity against Klebsiella pneumoniae ATCC 13883 by broth macrodilution method at 48 hrs; settings: ATCC 13883, 48 h
[5] = system: Staphylococcus aureus; test: Antibacterial activity against ciprofloxacin-susceptible methicillin-resistant Staphylococcus aureus at 48 hrs by broth macrodilution method
[6] = system: Staphylococcus aureus; test: Antibacterial activity against ciprofloxacin-resistant methicillin-resistant Staphylococcus aureus at 48 hrs by broth macrodilution method

## C[C@H]1NCc2cc(-c3ccc4c(=O)c(C(=O)O)cn(C5CC5)c4c3OC(F)F)ccc21 [GARENOXACIN]
[1]
  MBC: 0.32 µg/mL (≈ 0.75 µM)
  MIC: 0.16 µg/mL (≈ 0.375 µM)
[2]
  MBC: 0.32 µg/mL (≈ 0.75 µM)
  MIC: 0.16 µg/mL (≈ 0.375 µM)
[3]
  MBC: 0.32 µg/mL (≈ 0.75 µM)
  MIC: 0.04 µg/mL (≈ 0.0938 µM)
[4]
  MIC: 0.64 µg/mL (≈ 1.5 µM)
[5]
  MIC: 0.08 µg/mL (≈ 0.188 µM)
[6]
  MIC: 2.56 µg/mL (≈ 6 µM)
